Consider four compounds from PMC11224556, “Next-generation of BBQ analogues that selectively target breast cancer” (Frontiers in Chemistry, 2024).

One data set relates to A2780 (ovary) cells. On the set-up: method as in Gilbert et al., 2020. The conditions noted are these: MTT, 72 h, ref Gilbert et al., 2020; cited from earlier work.
Data set [1] concerns ZR-75-1 breast cancer cells. Set-up: method as in Gilbert et al., 2020. Particulars: ZR-75-1, Breast (ER/PR); MTT, 72 h; ref Gilbert et al., 2020; cited from earlier work.
For another data set, the system named is BE2-C (neuronal) cells. On the set-up: method as in Gilbert et al., 2020. The conditions noted are these: Neuron, MTT, 72 h, ref Gilbert et al., 2020; cited from earlier work.
The test system of a further data set is Du145 (prostate) cells. Set-up: method as in Gilbert et al., 2020. Particulars: MTT, 72 h, ref Gilbert et al., 2020; cited from earlier work.
A further data set concerns HT29 (colorectal) cells. On the set-up: method as in Gilbert et al., 2020. The conditions noted are these: HT29, Colon; MTT, 72 h; ref Gilbert et al., 2020; cited from earlier work.
In another data set the test system is BT20 breast cancer cells. Set-up: method as in Gilbert et al., 2020. The conditions noted are these: BT20, Breast (TN); MTT, 72 h; ref Gilbert et al., 2020; cited from earlier work.
The next data set relates to H460 (lung, ER+) cells. Set-up: method as in Gilbert et al., 2020. Particulars: MTT, 72 h, ref Gilbert et al., 2020; cited from earlier work.
For another data set, the system named is U87 (brain) cells. Set-up: method as in Gilbert et al., 2020. The conditions noted are these: U87, Brain (GBM); MTT, 72 h; ref Gilbert et al., 2020; cited from earlier work.
The test system of a further data set is MIA (pancreas) cells. On the set-up: method as in Gilbert et al., 2020. Particulars: MTT, 72 h, ref Gilbert et al., 2020; cited from earlier work.
The test system of data set [2] is BT474 breast cancer cells. Set-up: method as in Gilbert et al., 2020. Particulars: BT474, Breast (ER/PR/HER2); MTT, 72 h; ref Gilbert et al., 2020; cited from earlier work.
The next data set relates to SJ-G2 (brain) cells. On the set-up: method as in Gilbert et al., 2020. The conditions noted are these: SJ-G2, Brain (GBM); MTT, 72 h; ref Gilbert et al., 2020; cited from earlier work.
The test system of data set [3] is SKBR3 breast cancer cells. On the set-up: method as in Gilbert et al., 2020. The conditions noted are these: SKBR3, Breast (HER2); MTT, 72 h; ref Gilbert et al., 2020; cited from earlier work.
Data set [4] concerns broad panel of cancer cell lines and non-cancer breast cell line MCF10A. The conditions noted are these: cited from earlier work.
Data set [5] deals with MCF10A normal breast cells. Put plainly: MTT growth inhibition with CYP1 (αNF) or SULT1A1 (quercetin) inhibitor. It is filed as cell-based, human. Particulars: 3 and 5 at 0.1 µM, αNF 10 µM, quercetin 5 µM, 72 h (Supp Figure 1). How it is done: This analysis confirms that both CYP1 and SULT1A1, activity is needed to induce the growth inhibitory effect of the BBQ analogue.
Cells in logarithmic growth were transferred to 96-well plates. Cytotoxicity was determined by plating cells in duplicate in 100 μL medium at a density of 2,500–4,000 cells/well in 96 well plates. On day 0, (24 h after plating) when the cells were in logarithmic growth 100 μL medium with or without the test agent was added to each well. After 72 h drug exposure growth inhibitory effects were evaluated using the MTT (3-[4,5-dimethylthiazol-2-yl]-2,5-diphenyltetrazolium bromide) assay with absorbance read at 540 nm. An eight-point dose response curve was produced, using MS Excel software. From these dose-response curves, the GI50 value was calculated, representing the drug concentration at which cell growth is 50% inhibited based on the difference between the optical density values on day 0 and those at the end of drug exposure ([Bradshaw et al., 2008]; [Zhang et al., 2009]). Each data point was conducted in duplicate and the mean ± S.E.M. calculated from four to five replicates (n = 4 or 5), which were performed on separate occasions and separate cell line passages. Where shown, significant test results were determined using T-test analysis at p < 0.01 and p < 0.05 with a two tail distribution.
Supp Figure 1. CYP1 and SULT1A1 inhibition ameliorates the effect of 3 and 5. Growth inhibition (72 h, MTT assay) of 3 and 5 (0.1 µM) in the presence of the CYP1 family inhibitor, α-naphthoflavone (αNF, 10 µM) and SULT1A1 inhibitor, quercetin (qu, 5 µM) in (A) MDA-MB-468 breast cancer cells and (B) MCF10A normal breast cells. Significant differences are at the P < 0.01 ** level, using a paired T-test with a two-tailed distribution.

The next data set relates to CYP1A1 mRNA. The data set can be described thus: Gene expression analysis (qPCR) in MDA-MB-468 cells. Type of data set: cell-based, human. Particulars: 6 h. How it is done: (§1) These analogues were specifically chosen because they were synthesised without the production of regioisomers, their structural differences are small while their biological differences are large, c.f. […] Neither analogue altered the expression of SULT1A1 (Figure 4D).
(§2) Gene expression was examined in MDA-MB-468 cells following 6 h treatment. Total RNA was extracted using the RNeasy Mini Kit (Qiagen) according to the manufacturer’s instructions. One µg of RNA was reverse transcribed using the QuanitTect Reverse Transcription Kit (Qiagen) according to the manufacturer’s instructions. Rotor-Gene SYBR Green PCR Kit (Qiagen) was used to perform qPCR on a Rotor-Gene 3,000 Thermo-Cycler Instrument using β2-microglobulin as a housekeeping gene (Qiagen). The primer sequences were purchased from Qiagen as follows: AhR (QT02422938), CYP1A1 (QT00012341), CYP1B1 (QT00209496), SULT1A1 (QT01665489), and β2M (QT00088935). HotStar Taq activation (95 °C for 5 min) was followed by 40 cycles of denaturation (95 °C for 5 s), and annealing/extension (60 °C for 10 s). The comparative Ct value method was used for data analysis. Results are presented as the mean ± standard error of the mean (SEM) of analysis conducted in duplicate and repeated on two separate occasions. Significant test results were determined using T-test analysis at p < 0.01 with a two tail distribution.
(Quantitative PCR measures a nucleic acid by following its amplification.)

For a further data set, the system named is AhR mRNA. The description is as above. Type of data set: cell-based, human. Particulars: 1 μM and the GI50 value, 6 h. How it is done: as §1, §2
The subject of another data set is CYP1B1 mRNA. Described as above. Type of data set: cell-based, human. The conditions noted are these: 1.0 μM, 6 h. How it is done: as §1, §2

For the compound `Nc1ccccc1N1C(=O)c2cccc3cccc(c23)C1=O` [Compound 2, 2-(2-aminophenyl)-1H-benzo[de]isoquinoline-1,3(2H)-dione], the GI50 (in general, the concentration giving 50% growth inhibition) is 21 ± 4 µM in the data set on A2780 (ovary) cells; 120 ± 30 nM in data set [1]; over 50 µM in the data set on BE2-C (neuronal) cells; over 50 µM with Du145 (prostate) cells; 32 ± 2 µM with HT29 (colorectal) cells; 14 ± 1.5 µM in the data set on BT20 breast cancer cells. For the same compound, the 50% growth inhibitory concentration (GI50) is 15 ± 7.5 µM in the data set with H460 (lung, ER+) cells; over 50 µM in the data set with U87 (brain) cells; over 50 µM in the data set on MIA (pancreas) cells; 430 ± 70 nM in data set [2]; over 50 µM in the data set with SJ-G2 (brain) cells; 220 ± 20 nM in [3]. Moreover, the concentration for 50% growth inhibition (GI50) in [4] (A431, MCF-7, T47D, ZR-75-1, SKBR3, MDA-MB-468, BT474, ref Gilbert et al., 2020, read-out: GI50 (range over cell lines)) was 100 to 700 nM. The “selective targeting of certain breast cancer cell lines compared with normal breast cells or other tumour types (fold)” value in data set [4] (ref Gilbert et al., 2017, Gilbert et al., 2020) was “more than 500 fold”.
Take `O=c1c2cccc3cccc(c32)c2nc3ccc(Cl)cc3n12` [Compound 3, 10-Chloro-7H-benzo[de]benzo[4,5]imidazo[2,1-a]isoquinolin-7-one]: in data set [5], the “effect on growth in normal MCF10A cells” value is listed as “Neither 3, 5, αNF, or quercetin affected growth”. Besides, the figures for the “CYP1A1 Fold change (mRNA vs DMSO control)” value in the data set with CYP1A1 mRNA (0.2 μM) and with CYP1A1 mRNA (1.0 μM) were 18 fold and 20 fold, respectively. Besides, the “effect on expression of AhR” value with AhR mRNA is recorded as “not significantly altered”. Moreover, the “CYP1B1 Fold change (mRNA vs DMSO control)” value with CYP1B1 mRNA came to 3.7 fold. Moreover, the “selective in targeting certain breast cancer cell lines compared with normal cells or other tumour types (fold)” value in [4] (ref Baker et al., 2021a, Elson et al., 2023) is given as “up to 150 fold”.
Consider `O=c1c2cccc3cccc(c32)c2nc3ccccc3n12` [Compound 5, 7H-Benzo[de]benzo[4,5]imidazo[2,1-a]isoquinolin-7-one], for which the “effect on growth in normal MCF10A cells” value in data set [5] was “Neither 3, 5, αNF, or quercetin affected growth”. The “CYP1A1 Fold change (mRNA vs DMSO control)” value is listed as 12 fold in the data set with CYP1A1 mRNA (0.02 μM) and 15 fold in the data set on CYP1A1 mRNA (1.0 μM). Besides, the “effect on expression of AhR” value with AhR mRNA is “not significantly altered”. In addition, the “CYP1B1 Fold change (mRNA vs DMSO control)” value with CYP1B1 mRNA is recorded as 4.6 fold.
On to `O=c1c2cccc3cccc(c4n1Cc1ccccc1N=4)c32` [Compound 13, 7H,9H-benzo[4,5]isoquinolino[1,2-b]quinazolin-7-one], for which the melting point (in general, the temperature of the solid-liquid transition) fell in the range of 256 to 258 °C.
